“Also recorded” adds a separate entry of the source. Read-outs that look alike come from different tables or passages of the source.
Key:
[1] = target: T1, hCatK (Homo sapiens, UniProt P43235); experiment: In vitro inhibition of purified human Cathepsin K (fluorogenic substrate Z-FR-AMC); assay type: biochemical; conditions: for IC50: purified human Cathepsin, 30 min incubation with inhibitor, mean ± SD, triplicate
T1 sequence (P43235 115-329): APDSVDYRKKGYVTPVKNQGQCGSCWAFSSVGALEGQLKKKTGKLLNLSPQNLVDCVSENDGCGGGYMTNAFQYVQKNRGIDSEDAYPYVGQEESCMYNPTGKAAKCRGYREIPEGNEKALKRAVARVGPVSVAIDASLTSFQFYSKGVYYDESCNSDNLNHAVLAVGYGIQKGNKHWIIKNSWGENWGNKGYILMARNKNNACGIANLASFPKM
Experimental: (§1) Cathepsin (e.g. Cathepsin K/L/V/S/B), in particular purified human Cathepsin, was diluted in freshly prepared reaction buffer consisting of 50 mM MES pH 5.5, 25 mM EDTA and 2.5 mM DTT. 0.05% Tween20 (v/v) may be added to the reaction buffer of the Cathepsin K.
(§2) Activity assays may be conducted in a suitable manner. In the experiments described herein, the assays were typically conducted in Corning 3820 Low Volume 384 Well Assay Plate with a final assay volume of 20 μL. Plates were shaken at 600 rpm for 1 minute and centrifuged at 1000 rpm for 1 minute prior to incubation. Cathepsin activity was quantified using synthetic fluorogenic peptide substrate Z-FR-AMC (Cath K, L, V), Z-RR-AMC (Cath B) or Z-FVR-AMC (Cath S). Fluorescence intensity (λex=350 nm, λem=440 nm) was measured every 2 minutes in arbitrary units (A.U.) on a CLARIOstar (BMG Labtech) microplate reader and values were converted to product formation [AMC]. […] Measurements were performed in triplicate.
(§3) Inhibitors (200 nL, 100× final concentration in DMSO) were diluted in reaction buffer (10 μL). Purified human Cathepsin (5 μL, 4× final concentration) was added and the reaction mixture was incubated for 30 min at room temperature. Fluorogenic substrate (5 μL, 4× final concentration) was added and fluorescence intensity was measured every 2 minutes for 30-90 minutes.
(§4) The potency of the compounds as CatK inhibitors was assessed in an in vitro inhibition assay on purified human CatK (Table 2). Cathepsin was incubated with inhibitor, and the hydrolysis of substrate was initiated by addition of substrate.

[2] = target: hCatS (Homo sapiens, UniProt P25774); experiment: In vitro inhibition of purified human Cathepsin S (Z-FVR-AMC); assay type: biochemical; conditions: 30 min incubation with inhibitor, mean ± SD, triplicate
Experimental: as §1, §2, §3, §4

[3] = target: hCatV (Homo sapiens, UniProt O60911); experiment: In vitro inhibition of purified human Cathepsin V (Z-FR-AMC); assay type: biochemical; conditions: 30 min incubation with inhibitor, mean ± SD, triplicate
Experimental: as §1
as §2, with “In the experiments described herein, the assays were typically conducted in Corning 3820 Low Volume 384 Well Assay Plate with a final assay volume of 20 μL.” left out
as §3, §4

[4] = target: hCatB (Homo sapiens, UniProt P07858); experiment: In vitro inhibition of purified human Cathepsin B (Z-RR-AMC); assay type: biochemical; conditions: 30 min incubation with inhibitor, mean ± SD, triplicate
Experimental: as §1
as §2, with “In the experiments described herein, the assays were typically conducted in Corning 3820 Low Volume 384 Well Assay Plate with a final assay volume of 20 μL.” left out
as §3, §4

[5] = target: hCatL (Homo sapiens, UniProt P07711); experiment: In vitro inhibition of purified human Cathepsin L (Z-FR-AMC); assay type: biochemical; conditions: 30 min incubation with inhibitor, mean ± SD, triplicate
Experimental: as §1
as §2, with “In the experiments described herein, the assays were typically conducted in Corning 3820 Low Volume 384 Well Assay Plate with a final assay volume of 20 μL.” left out
as §3, §4

[6] = target: T1, hCatK; experiment: Kinetic evaluation of covalent inhibitors on purified hCatK; assay type: biochemical; conditions: 100 pM hCatK, 4 μM Z-FR-AMC, 26° C., reaction started by addition of CatK; for Ki: read-out: Kl
Experimental: The reaction kinetics of irreversible covalent inhibitor compounds may be assed in the following manner. Inhibitors (200 nL, 100× final concentration in DMSO) were diluted in reaction buffer (10 μL). Fluorogenic substrate (5 μL, 4× final concentration) was added and the reaction was started by addition of Cathepsin (5 μL, 4× final concentration). Fluorescence intensity was measured every 2 minutes for 60 minutes and fitted to equation I to obtain the Kobs. The obtained values were plotted against the inhibitor concentration and fitted to equation II to obtain kinetic parameters Kinact (rate of covalent bond formation) and Ki.
Kinetic evaluation of irreversible covalent inhibitors was conducted by following the progress curve of inhibition when the hydrolysis of substrate is started by addition of the enzyme (instead of incubating the protease with the inhibitor prior to addition of the substrate). From this curve the maximum rate of covalent bond formation (Kinact) could be determined (Table 4).

[7] = target: T2, Cathepsin K (Homo sapiens, UniProt P43235); experiment: LC-MS of intact CatK and CatK-inhibitor complexes; assay type: binding
T2 sequence (P43235 115-329): T1 sequence (P43235 115-329)
Experimental: The masses were determined from deconvoluted electrospray ionization mass spectra of CatK complexes. FIG. 4A to FIG. 4E each provide the result for a sample. In each of these FIGS. 4A to 4E the first panel provides the UPLC chromatogram, the second panel provides the electrospray ionization mass spectrum, and the third panel provides the corresponding deconvoluted electrospray ionization mass spectrum (average isotopes) with an indication of the measured mass of the predominant species. FIG. 4A provides the results obtained for intact CatK. FIG. 4B provides the results obtained for CatK.
Cathepsin K (3 μM) in reaction buffer ([…]) was incubated with inhibitor (100 μM) at 37° C. for 6 hours prior to analysis. 1 μL injections of the sample were made onto a XEVO-G2XSQTOF#YEA928 UPLC-MS system with a Waters Acquity CM detector. Chromatographic separation was carried out on a ACQUITY UPLC® Protein BEH C4 Column over a 12 minute gradient elution of 2% to 100% acetonitrile in water (0.1% formic acid) at a flow rate of 0.500 mL/min. For the first 4 minutes the flow was diverted to the waste to avoid contamination of the MS with high concentrations of buffer components. After 4 minutes, the elution flow was ionized with an ESI ionization source and measured on a XEVO-G2XSQTOF. The results were analyzed using MassLynx V4.1. The total mass of the complex was obtained by deconvolution of electrospray ionization mass spectrum envelope (average isotopes) with the MaxEnt1 function.
Cathepsin K was incubated with ODN, 4, 5 or 6 for 6 h to allow full covalent bond formation and submitted for measurement without any digestion steps, according to the method for LC-MS for intact CatK and CatK-inhibitor complexes described in the assays section above.

[8] = target: T1, hCatK; experiment: Jump dilution assay for reversibility of hCatK inhibition; assay type: biochemical; conditions: 300× dilution into fluorogenic substrate solution
Experimental: FIG. 3 provides a schematic overview of a jump dilution assay. A) Dose response curve for a 300-fold dilution of inhibitor concentration from full inhibition to full activity. B) Protocol and concentrations for incubation and dilution. C) Progress curves for hCatK proteolytic activity with inhibitor compounds ODN, 4, 5, 6 after dilution.
Reversibility of protease inhibition by an inhibitor may be assessed in a jump dilution assay. An exemplary jump dilution assay is provided in R. A. Copeland, A. Basavapathruni, M. Moyer, M. P. Scott, Anal. Biochem. 2011, 416, 206. In a jump dilution assay the protease (e.g. CatK) is incubated with inhibitor at high concentration to allow full active site occupation, and subsequently diluted, e.g. 300×, into fluorogenic substrate solution resulting in an inhibitor concentration corresponding with full protease activity. The hydrolysis of fluorogenic substrate is monitored over an extended time period, e.g. at least 60 minutes. […] The assay results may be compared with the results using a known irreversible inhibitor of the protease as a control. E-64 represents an established pan-Cathepsin irreversible inhibitor, suitable for use as a positive control with most cysteine protease Cathepsins.
Reversibility of hCatK inhibition was assessed in a jump dilution assay. Established pan-Cathepsin inhibitor E-64 was taken along as a control for irreversible inhibition. Purified hCatK was incubated with inhibitors at high concentration to allow full active site occupation, and subsequently diluted 300× into fluorogenic substrate solution resulting in an inhibitor concentration corresponding with full activity (FIG. 3).

Chain of hCatV (O60911 114-334): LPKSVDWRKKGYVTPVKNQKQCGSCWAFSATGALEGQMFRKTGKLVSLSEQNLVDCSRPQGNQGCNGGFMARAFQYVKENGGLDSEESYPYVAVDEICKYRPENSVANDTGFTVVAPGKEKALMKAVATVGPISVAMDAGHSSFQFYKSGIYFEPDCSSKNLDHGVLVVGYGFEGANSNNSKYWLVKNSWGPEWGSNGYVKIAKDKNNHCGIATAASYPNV
Chain of hCatS (P25774 115-331): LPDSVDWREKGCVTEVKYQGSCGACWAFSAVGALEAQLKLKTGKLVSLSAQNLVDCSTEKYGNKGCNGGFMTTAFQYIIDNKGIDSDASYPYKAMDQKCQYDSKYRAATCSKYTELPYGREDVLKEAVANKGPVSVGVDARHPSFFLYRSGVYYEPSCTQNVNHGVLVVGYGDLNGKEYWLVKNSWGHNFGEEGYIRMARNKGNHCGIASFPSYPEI
Chain of hCatL (P07711 114-333): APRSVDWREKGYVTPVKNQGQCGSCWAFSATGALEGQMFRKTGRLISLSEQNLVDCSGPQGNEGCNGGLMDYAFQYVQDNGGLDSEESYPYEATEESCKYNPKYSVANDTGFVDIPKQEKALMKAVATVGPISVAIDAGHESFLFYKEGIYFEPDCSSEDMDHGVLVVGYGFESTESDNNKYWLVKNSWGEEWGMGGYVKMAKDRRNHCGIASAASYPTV

IC50 [1]	IC50 [2]	IC50 [3]	IC50 [4]	IC50 [5]	selectivity for CatK over structurally related human Cathepsins ([1]; in words, from Table 2)	kinact/Kl [6]	Ki [6]	kinact ([6]; read-out: kinact (converted))	Measured mass complex ([7]; CatK 3 μM, inhibitor 100 μM, 37° C., 6 h, deconvoluted ESI mass)	reversibility of hCatK inhibition [8]	kinact [6]	SMILES	formation of covalent CatK-inhibitor complex ([7]; 6 h incubation, intact protein LC-MS)
0.00057 ± 9e-06 µM	0.0178 ± 0.000303 µM	0.909 ± 0.105 µM	–	–	–	–	–	–	–	–	–	CC(C)(F)C[C@H](N[C@@H](c1ccc(-c2ccc(S(C)(=O)=O)cc2)cc1)C(F)(F)F)C(=O)NCC#N [Compound 2, (S)—N-(cyanomethyl)-4-fluoro-4-methyl-2-(((S)-2,2,2-trifluoro-1-(4′-(methylsulfonyl)-[1,1′-biphenyl]-4-yl)ethyl)amino)pentanamide, reference compound]	–
26.2 ± 2.24 µM	> 100 µM	> 100 µM	> 100 µM	> 100 µM	–	–	–	–	–	–	–	C#CC1(NC(=O)[C@H](CC(C)(C)F)N[C@@H](c2ccc(-c3ccc(S(C)(=O)=O)cc3)cc2)C(F)(F)F)CC1 [Compound 3, (S)—N-(1-ethynylcyclopropyl)-4-fluoro-4-methyl-2-(((S)-2,2,2-trifluoro-1-(4′-(methylsulfonyl)-[1,1′-biphenyl]-4-yl)ethyl)amino)pentanamide]	–
0.0469 ± 0.00181 µM	0.0554 ± 0.00294 µM	0.0162 ± 0.000883 µM	0.0986 ± 0.00588 µM	0.102 ± 0.00514 µM	all selectivity is lost	1650 M⁻¹ s⁻¹	0.193 µM	0.000317 s⁻¹	24296	irreversible	–	CC(C)(F)C[C@H](N[C@@H](c1ccc(-c2ccc(S(C)(=O)=O)cc2)cc1)C(F)(F)F)C(=O)NCC#CBr [Compound 6, (S)—N-(3-bromoprop-2-yn-1-yl)-4-fluoro-4-methyl-2-(((S)-2,2,2-trifluoro-1-(4′-(methylsulfonyl)-[1,1′-biphenyl]-4-yl)ethyl)amino)pentanamide]	formation of a covalent hCatK—inhibitor complex; also recorded: covalent complex formed
0.0019 ± 3.2e-05 µM	–	–	–	0.0035 ± 0.00022 µM	–	117000 M⁻¹ s⁻¹	0.0114 µM	–	–	–	0.00135 s⁻¹	CC(C)C[C@H](NC(=O)[C@H]1O[C@@H]1C(=O)O)C(=O)NCCCCN=C(N)N [Compound E-64, reference compound]	–
